Data from ChEMBL document CHEMBL3885881, “DrugMatrix”.

Species: Rattus norvegicus
Assay: DrugMatrix - Regimen: Daily Repeat
Assay type: toxicity, organism-based, Sprague-Dawley
Set-up: regimen Daily Repeat, gender Male, age 6-8 weeks
Settings: in vivo, iv, vehicle 100 % SALINE; for ABSOLUTE BASOPHIL / ABSOLUTE EOSINOPHIL / ABSOLUTE LYMPHOCYTE / ABSOLUTE MONOCYTE / ABSOLUTE SEGMENTED NEUTROPHIL / BASOPHIL / EOSINOPHIL / ERYTHROCYTE COUNT / HEMATOCRIT / HEMOGLOBIN / LEUKOCYTE COUNT / LYMPHOCYTE / MEAN CORPUSCULAR HEMOGLOBIN / MEAN CORPUSCULAR HEMOGLOBIN CONCENTRATION / MEAN CORPUSCULAR VOLUME / MONOCYTE / NEUTROPHIL / NUCLEATED RED BLOOD CELLS / PLATELET COUNT: tissue Blood; for ALANINE AMINOTRANSFERASE / ALBUMIN / ALKALINE PHOSPHATASE / ASPARTATE AMINOTRANSFERASE / BLOOD UREA NITROGEN / CARBON DIOXIDE / CHLORIDE / CHOLESTEROL / CREATINE PHOSPHOKINASE / CREATININE / GLUCOSE / LACTATE DEHYDROGENASE / LIPASE / PHOSPHORUS / POTASSIUM / SODIUM / TOTAL BILIRUBIN / TOTAL PROTEIN / URIC ACID: tissue Plasma
[1] = 0 mg/kg, 72 h, dose level Control, time 3 day
[2] = 0 mg/kg, 120 h, dose level Control, time 5 day
[3] = 10 mg/kg, 72 h, dose level Low, time 3 day

O=C(O)P(=O)(O)O [FOSCARNET]
ABSOLUTE BASOPHIL [1]: 0 CELLS/uL | ABSOLUTE EOSINOPHIL [1]: 247.67 CELLS/uL | ABSOLUTE LYMPHOCYTE [1]: 13190.83 CELLS/uL | ABSOLUTE MONOCYTE [1]: 307.67 CELLS/uL | ABSOLUTE SEGMENTED NEUTROPHIL [1]: 1220.5 CELLS/uL | BASOPHIL [1]: 0% | EOSINOPHIL [1]: 1.67% | ERYTHROCYTE COUNT [1]: 5.47 x10E6/uL | HEMATOCRIT [1]: 33.98% | HEMOGLOBIN [1]: 12.65 G/DL | LEUKOCYTE COUNT [1]: 14.97 x10E3/uL | LYMPHOCYTE [1]: 88.17% | MEAN CORPUSCULAR HEMOGLOBIN [1]: 23.17 pg | MEAN CORPUSCULAR HEMOGLOBIN CONCENTRATION [1]: 37.23 G/DL | MEAN CORPUSCULAR VOLUME [1]: 62.25 fL | MONOCYTE [1]: 2% | NEUTROPHIL [1]: 8.17% | NUCLEATED RED BLOOD CELLS [1]: 0 /100WBC | PLATELET COUNT [1]: 1307.17 x10E3/uL | ALANINE AMINOTRANSFERASE [1]: 39.67 u/L | ALBUMIN [1]: 4.08 G/DL | ALKALINE PHOSPHATASE [1]: 383.17 u/L | ASPARTATE AMINOTRANSFERASE [1]: 88.83 u/L | BLOOD UREA NITROGEN [1]: 18.5 mg/dL | CARBON DIOXIDE [1]: 27.5 mmol/L | CHLORIDE [1]: 103 MEQ/L | CHOLESTEROL [1]: 67.33 mg/dL | CREATINE PHOSPHOKINASE [1]: 414.67 u/L | CREATININE [1]: 0.19 mg/dL | GLUCOSE [1]: 149.33 mg/dL | LACTATE DEHYDROGENASE [1]: 536.83 u/L | LIPASE [1]: 8.83 u/L | PHOSPHORUS [1]: 11.13 mg/dL | POTASSIUM [1]: 6.23 MEQ/L | SODIUM [1]: 144.42 MEQ/L | TOTAL BILIRUBIN [1]: 0.18 mg/dL | TOTAL PROTEIN [1]: 5.57 G/DL | URIC ACID [1]: 1.23 mg/dL | ABSOLUTE BASOPHIL [2]: 0 CELLS/uL | ABSOLUTE EOSINOPHIL [2]: 158.83 CELLS/uL | ABSOLUTE LYMPHOCYTE [2]: 13517.17 CELLS/uL | ABSOLUTE MONOCYTE [2]: 352.67 CELLS/uL | ABSOLUTE SEGMENTED NEUTROPHIL [2]: 1104.67 CELLS/uL | BASOPHIL [2]: 0% | EOSINOPHIL [2]: 1% | ERYTHROCYTE COUNT [2]: 5.73 x10E6/uL | HEMATOCRIT [2]: 36.85% | HEMOGLOBIN [2]: 13.67 G/DL | LEUKOCYTE COUNT [2]: 15.13 x10E3/uL | LYMPHOCYTE [2]: 89.5% | MEAN CORPUSCULAR HEMOGLOBIN [2]: 23.87 pg | MEAN CORPUSCULAR HEMOGLOBIN CONCENTRATION [2]: 37.1 G/DL | MEAN CORPUSCULAR VOLUME [2]: 64.33 fL | MONOCYTE [2]: 2.33% | NEUTROPHIL [2]: 7.17% | NUCLEATED RED BLOOD CELLS [2]: 0.17 /100WBC | PLATELET COUNT [2]: 1266 x10E3/uL | ALANINE AMINOTRANSFERASE [2]: 49.17 u/L | ALBUMIN [2]: 4.22 G/DL | ALKALINE PHOSPHATASE [2]: 352.67 u/L | ASPARTATE AMINOTRANSFERASE [2]: 95.17 u/L | BLOOD UREA NITROGEN [2]: 18.83 mg/dL | CARBON DIOXIDE [2]: 25.67 mmol/L | CHLORIDE [2]: 102.67 MEQ/L | CHOLESTEROL [2]: 66.83 mg/dL | CREATINE PHOSPHOKINASE [2]: 550.33 u/L | CREATININE [2]: 0.23 mg/dL | GLUCOSE [2]: 186.17 mg/dL | LACTATE DEHYDROGENASE [2]: 471.33 u/L | LIPASE [2]: 8.67 u/L | PHOSPHORUS [2]: 12.3 mg/dL | POTASSIUM [2]: 6.35 MEQ/L | SODIUM [2]: 143.57 MEQ/L | TOTAL BILIRUBIN [2]: 0.18 mg/dL | TOTAL PROTEIN [2]: 6.05 G/DL | URIC ACID [2]: 2 mg/dL | ABSOLUTE BASOPHIL [3]: 0 CELLS/uL | ABSOLUTE EOSINOPHIL [3]: 119 CELLS/uL | ABSOLUTE LYMPHOCYTE [3]: 13526 CELLS/uL | ABSOLUTE MONOCYTE [3]: 339.33 CELLS/uL | ABSOLUTE SEGMENTED NEUTROPHIL [3]: 1849 CELLS/uL | BASOPHIL [3]: 0% | EOSINOPHIL [3]: 1% | ERYTHROCYTE COUNT [3]: 5.59 x10E6/uL | HEMATOCRIT [3]: 35.27% | HEMOGLOBIN [3]: 13.4 G/DL | LEUKOCYTE COUNT [3]: 15.83 x10E3/uL | LYMPHOCYTE [3]: 86% | MEAN CORPUSCULAR HEMOGLOBIN [3]: 24.03 pg | MEAN CORPUSCULAR HEMOGLOBIN CONCENTRATION [3]: 38 G/DL | MEAN CORPUSCULAR VOLUME [3]: 63.2 fL | MONOCYTE [3]: 2% | NEUTROPHIL [3]: 11% | NUCLEATED RED BLOOD CELLS [3]: 0.33 /100WBC | PLATELET COUNT [3]: 1244.67 x10E3/uL | ALANINE AMINOTRANSFERASE [3]: 51.33 u/L | ALBUMIN [3]: 4.37 G/DL | ALKALINE PHOSPHATASE [3]: 431.67 u/L | ASPARTATE AMINOTRANSFERASE [3]: 102 u/L | BLOOD UREA NITROGEN [3]: 16.67 mg/dL | CARBON DIOXIDE [3]: 26.67 mmol/L | CHLORIDE [3]: 102 MEQ/L | CHOLESTEROL [3]: 79.67 mg/dL | CREATINE PHOSPHOKINASE [3]: 558.33 u/L | CREATININE [3]: 0.23 mg/dL | GLUCOSE [3]: 150.33 mg/dL | LACTATE DEHYDROGENASE [3]: 837 u/L | LIPASE [3]: 9.33 u/L | PHOSPHORUS [3]: 11.7 mg/dL | POTASSIUM [3]: 6.65 MEQ/L | SODIUM [3]: 144.07 MEQ/L | TOTAL BILIRUBIN [3]: 0.23 mg/dL | TOTAL PROTEIN [3]: 5.83 G/DL | URIC ACID [3]: 1.27 mg/dL
